Our source for the EC50 and half-life values is patent US8921307B2, “Synthetic linear apelin mimetics for the treatment of heart failure” (priority 2012, dated 2014).

One data set deals with T1, hAPJ (Homo sapiens, UniProt P35414).
T1 sequence (P35414 1-380): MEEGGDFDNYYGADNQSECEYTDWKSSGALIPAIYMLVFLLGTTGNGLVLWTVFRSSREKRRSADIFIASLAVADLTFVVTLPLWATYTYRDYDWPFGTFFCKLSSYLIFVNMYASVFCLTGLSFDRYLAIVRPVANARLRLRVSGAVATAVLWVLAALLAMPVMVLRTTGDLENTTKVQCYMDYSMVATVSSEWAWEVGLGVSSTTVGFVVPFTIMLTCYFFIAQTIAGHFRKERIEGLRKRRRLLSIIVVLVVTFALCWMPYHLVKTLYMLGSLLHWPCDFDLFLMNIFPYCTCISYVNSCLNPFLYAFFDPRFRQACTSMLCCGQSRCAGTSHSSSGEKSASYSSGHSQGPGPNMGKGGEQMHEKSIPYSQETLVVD
The data set is described as follows: hAPJ Calcium Flux Assay. Conditions: Chem-5 APJ stable cells, FLIPR calcium flux stimulation; read-out: hAPJ Ca^2+ Flux EC50. The data set is classed as cell-based. The gist of the method:
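Chem-5 cells stably expressing APJ, loaded 1 h with Calcium 4 dye plus 2.5 mM probenecid at 37 °C. Peptides added at final […] in HBSS/HEPES/0.1% BSA, in triplicate.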
For orientation: A change in cytosolic calcium serves as a functional read-out for many receptors and channels.

Data set [1] in a line: Surrogate Activity-Based Plasma Stability Assay. The data set is classed as in vitro ADME. Conditions: rat. How it is done: Stability half-life was then calculated by the formula, t½=0.693÷k Surrogate Activity-Based Plasma Stability Assay: […]
2) Calculate slope of value above and […]

Data set [2] can be described thus: Plasma Stability Assay (LC-MS). The format is in vitro ADME. Particulars: male, Sprague-Dawley, rat. How it is done: Plasma Stability Assay: Materials: Working solution: 1 mg/mL test article is prepared in Milli-Q water Extraction solution: Methanol:Acetonitrile:Water (1:1:1) with 0.1% Formic Acid and 400 ng/mL Glyburide. Plasma: Male Sprague-Dawley rat plasma (with sodium heparin), purchased from Bioreclamation LLC (Liverpool, N.Y.). Test article was prepared in one of the following biological matrices: heparinized rat plasma, heparinized rat whole blood or lung homogenate. […] Lung homogenate samples were prepared by diluting lung homogenate to 1 mg/ml protein concentration with phosphate buffered saline (PBS), followed by addition of 5 uL Working solution to 995 uL diluted lung homogenate. The samples were incubated at 37° C. with gentle shaking (65˜75 rpm) in a water bath incubator. […] Afterwards, a pipetting device (Tecan Temo) was used to tranfer the supernatants to another plate and add 50 uL of water to all samples. The plate was vortexed prior to LC-MS analysis. LC-MS Analysis of stability samples HPLC: Agilent 1290 HPLC with autosampler Column: MAC-MOD ACE C18, 3 μm, 30 mm×2.1 mm i.d. Mobile phase A: 0.1% Formic acid in acetonitrile Mobile phase B: 0.1% Formic acid in water Gradient Program: [table]

[3] abbreviates: Surrogate Activity based Plasma stability t½.
The mark [4] stands for this setting: Surrogate activity-based Plasma stability t½.

Where a SMILES comes first, the peptide text is derived from it. [ ]: non-standard residue; d: D form. pGlu = O=C1CC[C@@H](C(=O)O)N1; dNle = CCCC[C@@H](N)C(=O)O; Aib = CC(C)(N)C(=O)O

What is called EC50 is the concentration that produces a half-maximal response. What is called half-life is the time in which the quantity being followed falls by half. With `CCCC[C@@H](NC(=O)[C@@H]1CCCN1C(=O)CNC(=O)[C@H](CCCCN)NC(=O)C(C)(C)NC(=O)[C@H](CO)NC(=O)[C@@H](CC(C)C)NC(=O)[C@H](CCCNC(=N)N)NC(=O)[C@@H]1CCCN1C(=O)[C@H](CCCNC(=N)N)NC(=O)[C@@H]1CCC(=O)N1)C(=O)N[C@H](C)C(=O)N[C@H](Cc1ccccc1)C(=O)O` [Example 4, pE-R-P-R-(D-Leu)-S-Aib-K-G-P-nle-a-f-OH] ([pGlu]RPR[dL]S[Aib]KGP[dNle][dA][dF]-OH), the EC50 at hAPJ came out at 5 nM. For the same compound, the half-life in data set [1] (setting [3]) and in data set [1] (setting [4]) was 12.2 h in each case. The compound also had a half-life at 5000 ng/mL in data set [2] of 6.9 h.

As for `CCCC[C@@H](NC(=O)[C@@H]1CCCN1C(=O)CNC(=O)[C@H](CCCCN)NC(=O)[C@H](Cc1c[nH]cn1)NC(=O)[C@@H](C)NC(=O)[C@H](CC(C)C)NC(=O)[C@H](CCCNC(=N)N)NC(=O)[C@@H]1CCCN1C(=O)[C@H](CCCNC(=N)N)NC(=O)[C@@H]1CCC(=O)N1)C(=O)N[C@H](CC(C)C)C(=O)N[C@H](Cc1ccccc1)C(=O)O` [Example 14, pE-R-P-R-L-a-H-K-G-P-nle-(D-Leu)-f-OH] ([pGlu]RPRL[dA]HKGP[dNle][dL][dF]-OH), the EC50 on hAPJ turned out to be 3.2 nM. In addition, the half-life in data set [1] (setting [3]) and in data set [1] (setting [4]) was 3.08 h in each case. The same compound gave a half-life at 5000 ng/mL in data set [2] of 6.75 h.
